# Experimental data: ChEMBL document CHEMBL1201862, “PubChem BioAssay data set” (2004)
# “And” between values parts separate entries of the source, which are not always exact repeats. Identical values can stand only once. The source made the active and inactive calls.
# Assays:
# [1] = biological target: T1, Voltage-gated N-type calcium channel alpha-1B subunit/Amyloid beta A4 precursor protein-binding family A member 1 (Homo sapiens, UniProt Q00975+Q02410); assay type: protein assay
# HEK293 [2] = experiment: inhibition of NOD1-driven NF-kB reporter – cell-based, luminescence, uHTS, primary screen (AID 1578); assay type: functional; settings: Homo sapiens
# [3] = biological target: T2, Carboxy-terminal domain RNA polymerase II polypeptide A small phosphatase 1 (Homo sapiens, UniProt Q9GZU7); experiment: CTDSP1 inhibitors, concentration-response, biochemical, absorbance readout, ultra-high-throughput screen actives (AID 540297); assay type: functional
# T2 sequence (Q9GZU7 whole entry): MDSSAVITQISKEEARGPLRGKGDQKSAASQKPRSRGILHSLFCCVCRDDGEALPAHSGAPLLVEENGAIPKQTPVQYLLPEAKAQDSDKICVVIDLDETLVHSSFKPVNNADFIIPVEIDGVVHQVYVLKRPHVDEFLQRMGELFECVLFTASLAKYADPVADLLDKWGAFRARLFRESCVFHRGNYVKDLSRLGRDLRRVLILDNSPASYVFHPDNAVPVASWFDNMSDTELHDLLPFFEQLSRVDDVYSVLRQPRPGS
# HEK293 [4] = experiment: cells; assay type: functional, cell-based; settings: Homo sapiens
# [5] = biological target: T1, Voltage-gated N-type calcium channel alpha-1B subunit/Amyloid beta A4 precursor protein-binding family A member 1; assay type: protein assay; remark: listed apart in the source
# HEK293 [6] = experiment: cells; assay type: functional, cell-based; settings: Homo sapiens; remark: listed apart in the source
# HEK293 [7] = experiment: NOD2 signaling inhibitors in MDP-stimulated cells, cell-based, uHTS, luminescence (AID 2001); assay type: functional; settings: Homo sapiens
# Tumor necrosis factor = Tumor necrosis factor (Homo sapiens, UniProt P01375); experiment: analog potency on TNFa NF-kB signaling – cell-based, revised, SAR follow-up (AID 2337); assay type: functional
# Tumor necrosis factor, sequence (P01375 whole entry, the tested form may be a part): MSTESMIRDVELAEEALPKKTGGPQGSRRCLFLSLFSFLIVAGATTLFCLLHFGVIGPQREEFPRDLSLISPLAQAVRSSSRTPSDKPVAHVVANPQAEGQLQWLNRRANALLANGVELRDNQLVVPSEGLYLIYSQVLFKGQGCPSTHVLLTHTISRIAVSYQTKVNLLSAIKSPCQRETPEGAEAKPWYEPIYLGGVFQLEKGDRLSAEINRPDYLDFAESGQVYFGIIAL
# [8] = biological target: Nucleotide-binding oligomerization domain-containing protein 2 (Homo sapiens, UniProt Q9HC29); experiment: inhibition of NOD2-driven NF-kB reporter – cell-based, luminescence, uHTS, HEK293 (AID 1566); assay type: functional
# [9] = biological target: Nucleotide-binding oligomerization domain-containing protein 1 (Homo sapiens, UniProt Q9Y239); experiment: blockers of NOD1 pathway activity – revised, SAR follow-up (AID 2333); assay type: functional
# [10] = biological target: Eukaryotic translation initiation factor 4E (Mus musculus, UniProt P63073); experiment: blockers of eIF4G binding by eIF4E – biochemical, TR-FRET, dose response (AID 855); assay type: functional;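 further: potency for disrupting eIF4E binding to eIF4GI seen as loss of FRET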
# [11] = biological target: T3, Mannose-6-phosphate isomerase (Homo sapiens, UniProt P34949); experiment: MPI enzyme activity inhibition – biochemical, fluorescence intensity, coupled assay, primary screen (AID 1209)
# T3 sequence (P34949 whole entry): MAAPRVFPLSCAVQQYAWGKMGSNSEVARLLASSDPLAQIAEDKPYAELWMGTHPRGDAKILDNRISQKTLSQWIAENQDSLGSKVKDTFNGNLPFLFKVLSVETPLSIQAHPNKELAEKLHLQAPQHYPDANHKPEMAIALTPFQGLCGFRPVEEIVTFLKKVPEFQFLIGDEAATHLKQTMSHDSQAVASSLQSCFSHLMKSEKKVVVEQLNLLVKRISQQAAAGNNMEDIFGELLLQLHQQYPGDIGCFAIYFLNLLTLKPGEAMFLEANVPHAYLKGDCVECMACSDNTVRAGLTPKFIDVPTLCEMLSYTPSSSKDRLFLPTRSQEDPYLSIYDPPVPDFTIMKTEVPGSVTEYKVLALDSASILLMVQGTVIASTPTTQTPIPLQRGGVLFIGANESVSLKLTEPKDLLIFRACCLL
# [12] = biological target: Phosphoethanolamine/phosphocholine phosphatase (Homo sapiens, UniProt Q8TCT1); experiment: SAR assay for compounds that inhibit PHOSPHO1. [Related pubchem assays (depositor defined):AID1545, AID1565, AID1574]
# Phosphoethanolamine/phosphocholine phosphatase, sequence (Q8TCT1 whole entry): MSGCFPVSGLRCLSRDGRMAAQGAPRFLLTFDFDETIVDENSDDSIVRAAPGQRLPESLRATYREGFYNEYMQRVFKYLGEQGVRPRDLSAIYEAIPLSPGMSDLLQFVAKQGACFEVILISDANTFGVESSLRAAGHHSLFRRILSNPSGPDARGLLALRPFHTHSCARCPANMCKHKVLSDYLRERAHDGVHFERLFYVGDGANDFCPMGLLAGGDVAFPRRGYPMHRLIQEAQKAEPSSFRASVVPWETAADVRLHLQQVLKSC
# [13] = biological target: T3, Mannose-6-phosphate isomerase; experiment: MPI inhibition at elevated mannose 6-phosphate – biochemical, fluorescence intensity, high mannose 6-phosphate, primary screen (AID 1220)
# Phosphomannomutase 2 = Phosphomannomutase 2 (Homo sapiens, UniProt O15305); experiment: Counter screen SAR assay for PMM2 inhibitors via a fluorescence intensity assay. [Related pubchem assays (depositor defined):AID1545, AID1574]
# Phosphomannomutase 2, sequence (O15305 whole entry): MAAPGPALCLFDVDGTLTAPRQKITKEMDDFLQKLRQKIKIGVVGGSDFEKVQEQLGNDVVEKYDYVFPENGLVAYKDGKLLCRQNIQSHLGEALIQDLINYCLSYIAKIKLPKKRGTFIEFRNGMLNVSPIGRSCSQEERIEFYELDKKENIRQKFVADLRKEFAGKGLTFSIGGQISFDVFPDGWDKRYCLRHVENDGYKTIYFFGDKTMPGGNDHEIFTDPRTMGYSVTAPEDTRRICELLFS
# Large T antigen = Large T antigen (Simian virus 40, UniProt P03070); assay type: functional, Betapolyomavirus macacae;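 further: Confirmatory-stage PubChem screen for compounds that inhibit SV40 T antigen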
# [14] = biological target: T3, Mannose-6-phosphate isomerase; experiment: phosphomannose isomerase inhibition – biochemical, fluorescence intensity, confirmation (AID 1535)
# Hexokinase = biological target: T4, Hexokinase (Trypanosoma brucei, UniProt Q38C41); experiment: Confirmation assay for inhibitors of Trypanosoma brucei hexokinase 1-Analogue-first series. [Related pubchem assays (depositor defined):AID1430, AID1632, AID2516, AID2560, AID2579, AID2600, AID449725, AID492951]; assay type: functional
# T4 sequence (Q38C41 whole entry): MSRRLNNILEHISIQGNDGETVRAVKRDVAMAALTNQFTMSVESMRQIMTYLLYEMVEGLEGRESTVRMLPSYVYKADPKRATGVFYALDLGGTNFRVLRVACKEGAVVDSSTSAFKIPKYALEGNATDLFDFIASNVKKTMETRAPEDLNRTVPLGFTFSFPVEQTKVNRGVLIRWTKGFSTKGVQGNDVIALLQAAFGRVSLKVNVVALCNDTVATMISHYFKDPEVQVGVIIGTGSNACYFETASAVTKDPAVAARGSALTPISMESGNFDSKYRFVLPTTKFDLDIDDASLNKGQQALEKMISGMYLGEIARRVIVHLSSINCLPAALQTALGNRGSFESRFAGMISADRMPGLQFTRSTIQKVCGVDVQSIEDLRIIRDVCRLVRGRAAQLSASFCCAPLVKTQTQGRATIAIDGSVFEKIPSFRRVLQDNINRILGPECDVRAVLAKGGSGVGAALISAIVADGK
# [15] = biological target: Glucose-6-phosphate 1-dehydrogenase (Homo sapiens, UniProt P11413); experiment: inhibition of Homo sapiens G6PD, dose series – biochemical, fluorescence, selectivity assay for P. falciparum G6PD inhibitor project, dose response (AID 504792); assay type: functional
# [16] = biological target: T3, Mannose-6-phosphate isomerase; experiment: Confirmation of compounds inhibiting phosphomannose isomerase (PMI) via a fluorescence intensity assay using a high concentration of mannose 6-phosphate. [Related pubchem assays (depositor defined):AID1209, AID1220, AID1545, AID1553, AID1620]
# [17] = biological target: DNA dC->dU-editing enzyme APOBEC-3G (Homo sapiens, UniProt Q9HC16); experiment: Dose Response confirmation of small molecule APOBEC3G DNA Deaminase Inhibitors via a fluorescence-based single-stranded DNA deaminase assay. [Related pubchem assays (depositor defined):AID493012, AID493028]; assay type: functional
# DNA dC->dU-editing enzyme APOBEC-3G, sequence (Q9HC16 whole entry): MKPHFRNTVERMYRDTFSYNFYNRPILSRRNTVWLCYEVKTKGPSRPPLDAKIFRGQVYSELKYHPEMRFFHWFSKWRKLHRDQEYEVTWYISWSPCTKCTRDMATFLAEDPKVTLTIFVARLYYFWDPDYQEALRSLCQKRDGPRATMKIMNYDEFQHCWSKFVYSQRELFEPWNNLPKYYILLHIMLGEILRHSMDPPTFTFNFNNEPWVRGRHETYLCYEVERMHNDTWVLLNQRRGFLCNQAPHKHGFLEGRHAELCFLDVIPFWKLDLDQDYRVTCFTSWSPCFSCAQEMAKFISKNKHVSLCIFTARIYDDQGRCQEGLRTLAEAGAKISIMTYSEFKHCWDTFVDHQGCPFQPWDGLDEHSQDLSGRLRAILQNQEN
# [18] = biological target: T5, Mitochondrial peptide methionine sulfoxide reductase (Bos taurus, UniProt P54149); experiment: Absorbance-based biochemical high throughput dose response assay for activators of Methionine sulfoxide reductase A (MsrA).; assay type: functional
# T5 sequence (P54149 whole entry): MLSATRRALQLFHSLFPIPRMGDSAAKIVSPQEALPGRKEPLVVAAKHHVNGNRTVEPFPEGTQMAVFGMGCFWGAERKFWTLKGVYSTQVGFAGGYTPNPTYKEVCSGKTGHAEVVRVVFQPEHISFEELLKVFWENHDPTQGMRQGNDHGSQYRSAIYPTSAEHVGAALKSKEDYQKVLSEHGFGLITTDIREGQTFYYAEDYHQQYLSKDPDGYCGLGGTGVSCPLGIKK
# [19] = biological target: Type-1 angiotensin II receptor (Homo sapiens, UniProt P30556); experiment: agonist activity at AGTR1 – cell-based, uHTS hits, selectivity assay for APJ receptor agonist project, dose response (AID 488865); assay type: functional;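 further: beta-arrestin recruitment to AT1 measured by enzyme fragment complementation luminescence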
# [20] = biological target: T6, Oxysterols receptor LXR-beta (Homo sapiens, UniProt P55055); assay type: functional, cell-based;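 further: Cell-based luminescence dose-response assay of agonist activity at LXR, run as a confirmatory counterscreen to a daf-12 agonist screen; HEK293 cells with Gal4-LXR fusion and GAL4-driven luciferase reporter; agonist potency from rising luciferase signal of a Gal4-LXR reporter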
# T6 sequence (P55055 whole entry): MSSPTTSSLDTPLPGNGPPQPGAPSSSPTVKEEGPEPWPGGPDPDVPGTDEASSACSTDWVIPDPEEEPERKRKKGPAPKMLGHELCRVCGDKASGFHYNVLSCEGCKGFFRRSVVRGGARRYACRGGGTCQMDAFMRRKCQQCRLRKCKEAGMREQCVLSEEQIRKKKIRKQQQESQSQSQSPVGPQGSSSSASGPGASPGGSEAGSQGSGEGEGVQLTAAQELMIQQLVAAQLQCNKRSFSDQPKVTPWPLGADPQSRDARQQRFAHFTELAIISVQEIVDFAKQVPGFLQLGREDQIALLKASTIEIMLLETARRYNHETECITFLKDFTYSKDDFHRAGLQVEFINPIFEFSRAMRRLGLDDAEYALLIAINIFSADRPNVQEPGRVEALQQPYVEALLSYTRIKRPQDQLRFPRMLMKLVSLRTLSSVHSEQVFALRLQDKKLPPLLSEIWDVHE
# [21] = biological target: NACHT, LRR and PYD domains-containing protein 1 (Homo sapiens, UniProt Q9C000); experiment: NALP1 inhibitors in yeast, dose response, luminescent (AID 488860); assay type: functional
# Saccharomyces cerevisiae = experiment: S. cerevisiae Caspase-1/ASC signal blockers IC50, NALP1 inhibitor project selectivity test (AID 488863); assay type: functional, organism-based
# [22] = decrease of insulin promoter-GFP reporter – imaging, high-content screening, mouse beta cells (AID 1628); assay type: functional; settings: MIN6
# [23] = MIN6 cell viability loss – mouse insulinoma, cytotoxicity control, dose response (AID 2122); assay type: functional;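 further: confirmatory high-throughput counterscreen run to flag cytotoxic compounds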
# [24] = RanGTP/importin-beta interaction disruptors – biochemical, plate reader, dry powder, dose response (AID 493048); design: species or system Homo sapiens
# [25] = NIH3T3 cell viability loss – ATP luminescence, mouse fibroblasts, counter-screen, dose response (AID 2010); assay type: functional, cell-based;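 further: cells exposed to compound for about 90 hours before reading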
# Importin subunit alpha-1 = Importin subunit alpha-1 (Homo sapiens, UniProt P52292); experiment: compounds lowering YIC probe YFP/CFP ratio – biochemical, dry powder samples, FRET, counter-screen for RanGTP-importin-beta inhibitor project, dose response (AID 493094); assay type: functional
# [26] = Trypanosoma cruzi growth suppression in host cells – NIH3T3 host cells, beta-gal luminescence, confirmation (AID 2044); assay type: functional, cell-based;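 further: intracellular parasites grown in NIH/3T3 mouse fibroblasts as host cells; luminescent beta-galactosidase reporter signal from transgenic T. cruzi replicating inside host cells; inhibitors lower the luminescence signal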
# [27] = biological target: T7, Runt-related transcription factor 1/Core-binding factor subunit beta (Homo sapiens, UniProt Q01196+Q13951); experiment: disruptors of Runt domain/CBFb-SMMHC interaction – biochemical, FRET, Cerulean-Runt, Venus-CBFb-SMMHC, uHTS, […] (AID 1434); assay type: protein assay
# T7 sequence (Q01196 whole entry, the tested form may be a part): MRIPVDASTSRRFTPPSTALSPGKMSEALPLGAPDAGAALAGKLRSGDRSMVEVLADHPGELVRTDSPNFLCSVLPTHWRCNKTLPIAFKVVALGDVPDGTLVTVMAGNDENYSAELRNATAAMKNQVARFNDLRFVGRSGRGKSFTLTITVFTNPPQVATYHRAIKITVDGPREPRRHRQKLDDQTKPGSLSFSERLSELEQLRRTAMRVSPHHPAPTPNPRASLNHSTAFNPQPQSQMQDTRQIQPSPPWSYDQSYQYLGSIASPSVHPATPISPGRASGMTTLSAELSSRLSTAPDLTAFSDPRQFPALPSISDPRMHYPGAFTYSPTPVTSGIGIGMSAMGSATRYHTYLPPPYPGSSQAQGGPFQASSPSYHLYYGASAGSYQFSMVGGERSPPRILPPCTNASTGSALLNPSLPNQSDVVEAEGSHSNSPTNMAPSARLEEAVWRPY
# T7 sequence (Q13951 whole entry, the tested form may be a part): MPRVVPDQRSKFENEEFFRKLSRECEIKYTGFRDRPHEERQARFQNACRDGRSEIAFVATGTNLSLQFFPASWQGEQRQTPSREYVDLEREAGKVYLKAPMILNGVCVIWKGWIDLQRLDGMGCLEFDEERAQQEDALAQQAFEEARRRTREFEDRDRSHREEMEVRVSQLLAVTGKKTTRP
# [28] = biological target: T7, Runt-related transcription factor 1/Core-binding factor subunit beta; experiment: Runt domain/CBFb-SMMHC interaction disruptors – biochemical, TR-FRET (AID 1438); assay type: protein assay
# [29] = biological target: Voltage-dependent T-type calcium channel subunit alpha-1H (Homo sapiens, UniProt O95180); experiment: human CACNA1H calcium influx blockade – cell-based, synthetic library set 1, calcium flux (AID 493022); assay type: functional
# [30] = biological target: T8, Tyrosine-protein phosphatase non-receptor type 7 (Homo sapiens, UniProt P35236); experiment: redox-active compounds inhibiting HePTP phosphatase – biochemical, fluorescence, mechanism study (AID 2068); assay type: functional
# T8 sequence (P35236 whole entry): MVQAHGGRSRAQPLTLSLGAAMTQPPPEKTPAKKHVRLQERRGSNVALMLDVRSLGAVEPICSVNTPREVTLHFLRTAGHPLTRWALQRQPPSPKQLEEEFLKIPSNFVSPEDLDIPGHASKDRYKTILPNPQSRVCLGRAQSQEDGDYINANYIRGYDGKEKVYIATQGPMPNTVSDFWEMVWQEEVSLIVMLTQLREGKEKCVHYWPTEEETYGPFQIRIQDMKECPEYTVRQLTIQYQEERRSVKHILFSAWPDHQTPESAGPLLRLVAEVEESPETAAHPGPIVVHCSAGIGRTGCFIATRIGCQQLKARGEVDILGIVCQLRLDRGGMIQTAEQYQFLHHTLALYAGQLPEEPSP
# T1 sequence (Q00975 whole entry): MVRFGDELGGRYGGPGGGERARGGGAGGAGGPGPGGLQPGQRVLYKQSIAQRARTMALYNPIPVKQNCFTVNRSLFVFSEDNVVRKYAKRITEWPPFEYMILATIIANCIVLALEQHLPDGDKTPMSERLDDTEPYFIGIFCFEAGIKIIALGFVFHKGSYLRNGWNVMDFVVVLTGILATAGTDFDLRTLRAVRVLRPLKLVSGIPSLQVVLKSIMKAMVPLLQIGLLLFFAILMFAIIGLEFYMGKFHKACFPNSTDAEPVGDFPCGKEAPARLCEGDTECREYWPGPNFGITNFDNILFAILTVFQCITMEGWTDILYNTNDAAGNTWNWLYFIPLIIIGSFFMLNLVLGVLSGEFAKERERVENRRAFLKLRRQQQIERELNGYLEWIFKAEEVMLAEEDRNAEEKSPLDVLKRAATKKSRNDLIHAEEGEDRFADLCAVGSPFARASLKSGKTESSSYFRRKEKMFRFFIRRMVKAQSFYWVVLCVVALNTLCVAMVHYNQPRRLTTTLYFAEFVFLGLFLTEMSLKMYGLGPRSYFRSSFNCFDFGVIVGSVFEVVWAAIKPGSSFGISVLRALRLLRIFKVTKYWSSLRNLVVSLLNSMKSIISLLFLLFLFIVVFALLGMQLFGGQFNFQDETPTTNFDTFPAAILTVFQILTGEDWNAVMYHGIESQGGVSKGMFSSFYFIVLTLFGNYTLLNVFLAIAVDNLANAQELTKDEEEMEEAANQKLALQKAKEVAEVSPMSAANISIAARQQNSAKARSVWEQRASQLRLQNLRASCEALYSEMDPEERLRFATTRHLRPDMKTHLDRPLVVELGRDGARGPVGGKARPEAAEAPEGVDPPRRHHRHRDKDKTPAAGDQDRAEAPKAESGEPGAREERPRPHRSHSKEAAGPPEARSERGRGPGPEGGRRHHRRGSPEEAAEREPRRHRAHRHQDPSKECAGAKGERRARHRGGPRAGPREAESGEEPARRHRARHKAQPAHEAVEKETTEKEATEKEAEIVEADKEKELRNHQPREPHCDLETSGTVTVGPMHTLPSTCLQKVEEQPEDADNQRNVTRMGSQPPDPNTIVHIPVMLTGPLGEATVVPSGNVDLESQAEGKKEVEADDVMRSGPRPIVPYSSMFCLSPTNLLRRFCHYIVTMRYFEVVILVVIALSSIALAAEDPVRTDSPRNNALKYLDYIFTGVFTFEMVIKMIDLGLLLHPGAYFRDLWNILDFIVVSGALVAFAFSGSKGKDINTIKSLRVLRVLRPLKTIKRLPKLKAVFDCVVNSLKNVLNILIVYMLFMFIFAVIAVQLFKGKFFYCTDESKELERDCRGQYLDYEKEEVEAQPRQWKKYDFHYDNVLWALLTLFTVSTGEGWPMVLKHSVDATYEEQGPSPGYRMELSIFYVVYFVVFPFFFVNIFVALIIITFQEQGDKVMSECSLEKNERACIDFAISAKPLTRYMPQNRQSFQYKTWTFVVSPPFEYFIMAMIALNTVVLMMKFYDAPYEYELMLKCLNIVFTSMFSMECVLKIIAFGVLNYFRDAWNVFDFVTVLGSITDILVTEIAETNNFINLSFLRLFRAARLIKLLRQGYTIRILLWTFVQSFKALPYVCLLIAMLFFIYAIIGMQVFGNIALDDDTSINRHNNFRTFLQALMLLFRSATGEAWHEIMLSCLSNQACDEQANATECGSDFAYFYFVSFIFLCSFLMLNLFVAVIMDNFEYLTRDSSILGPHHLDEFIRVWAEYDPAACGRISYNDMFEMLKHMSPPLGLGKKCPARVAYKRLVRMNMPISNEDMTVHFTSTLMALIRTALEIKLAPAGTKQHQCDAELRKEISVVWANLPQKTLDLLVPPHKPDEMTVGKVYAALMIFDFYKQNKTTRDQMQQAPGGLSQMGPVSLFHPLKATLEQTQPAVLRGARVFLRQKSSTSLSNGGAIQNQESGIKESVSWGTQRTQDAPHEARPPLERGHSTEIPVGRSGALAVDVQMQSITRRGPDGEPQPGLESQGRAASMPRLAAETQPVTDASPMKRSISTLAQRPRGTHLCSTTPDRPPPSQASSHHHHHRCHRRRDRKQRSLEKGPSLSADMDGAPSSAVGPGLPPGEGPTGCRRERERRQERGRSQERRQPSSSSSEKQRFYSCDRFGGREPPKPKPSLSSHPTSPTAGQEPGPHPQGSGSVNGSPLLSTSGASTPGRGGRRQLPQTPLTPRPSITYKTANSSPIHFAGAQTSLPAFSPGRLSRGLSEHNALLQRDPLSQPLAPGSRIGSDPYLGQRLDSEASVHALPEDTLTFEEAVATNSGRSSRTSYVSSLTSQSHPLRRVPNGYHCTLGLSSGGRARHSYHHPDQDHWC
# T1 sequence (Q02410 whole entry): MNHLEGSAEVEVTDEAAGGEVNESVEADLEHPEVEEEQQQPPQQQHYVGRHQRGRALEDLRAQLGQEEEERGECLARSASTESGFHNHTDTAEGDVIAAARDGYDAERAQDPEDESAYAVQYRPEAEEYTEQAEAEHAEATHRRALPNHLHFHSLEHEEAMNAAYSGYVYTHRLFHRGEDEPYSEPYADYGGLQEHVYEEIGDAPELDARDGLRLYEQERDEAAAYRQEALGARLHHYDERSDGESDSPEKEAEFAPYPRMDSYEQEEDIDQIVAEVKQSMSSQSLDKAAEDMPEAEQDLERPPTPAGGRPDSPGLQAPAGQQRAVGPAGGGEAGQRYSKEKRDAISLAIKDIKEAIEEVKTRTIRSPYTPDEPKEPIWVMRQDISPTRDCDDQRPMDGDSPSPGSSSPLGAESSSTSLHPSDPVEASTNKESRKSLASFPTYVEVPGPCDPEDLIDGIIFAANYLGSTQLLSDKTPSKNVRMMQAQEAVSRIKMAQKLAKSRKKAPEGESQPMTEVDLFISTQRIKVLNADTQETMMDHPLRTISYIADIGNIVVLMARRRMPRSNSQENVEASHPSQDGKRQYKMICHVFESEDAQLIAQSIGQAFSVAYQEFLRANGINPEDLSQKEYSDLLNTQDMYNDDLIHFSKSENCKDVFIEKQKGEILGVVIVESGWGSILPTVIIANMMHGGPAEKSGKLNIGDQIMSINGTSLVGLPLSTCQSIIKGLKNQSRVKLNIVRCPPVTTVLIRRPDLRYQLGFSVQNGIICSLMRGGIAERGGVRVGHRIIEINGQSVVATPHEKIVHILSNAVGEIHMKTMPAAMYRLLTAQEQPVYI
smiles,measurement,setting,value
COc1ccc2cc3c(N)nn(C(=O)c4ccc(Cl)c([N+](=O)[O-])c4)c3nc2c1,IC50,[1],28.7 µM (active)
same,EC50,HEK293 [2],3.5 µM (active)
same,IC50,[3],1.72 µM (active)
same,IC50,HEK293 [4],> 20 µM (inactive)
same,IC50,[5],16.1 µM (active)
same,IC50,HEK293 [6],1.71 µM (active)
same,IC50,HEK293 [7],2.29 µM (active)
O=C(CSc1nc2scc(-c3ccccc3)c2c(=O)[nH]1)Nc1ccccc1,IC50,Tumor necrosis factor,1.96 µM (active)
same,EC50,[8],0.95 µM (active)
same,IC50,[9],2.83 µM (active)
CN(C)S(=O)(=O)c1cccc(-n2sc3ccccc3c2=O)c1,IC50,[10],13 µM (active)
same,IC50,[11],5.25 µM (active)
same,IC50,[12],495 nM (active) and 457 nM (active)
same,IC50,[13],11.7 µM (active)
same,IC50,Phosphomannomutase 2,13.5 µM (active) and 12.9 µM (active)
same,IC50,Large T antigen,13.3 µM (active)
same,IC50,[14],2.79 µM (active) and 7.06 µM (active)
same,IC50,Hexokinase,7.63 µM (active)
same,IC50,[15],12.4 µM (active)
same,IC50,[16],16.4 µM (active)
same,IC50,[17],9.11 µM (active)
same,EC50,[18],> 104 µM (inactive)
NC(=NOS(=O)(=O)c1ccc2ccccc2c1)c1ccncc1,EC50,[19],> 100 µM (inactive)
CSc1nnc(-c2cc3c(s2)-c2ccccc2CC3)o1,EC50,[20],> 67.5 µM (inactive)
same,IC50,[21],> 100 µM (inactive)
same,IC50,Saccharomyces cerevisiae,> 100 µM (inactive)
same,EC50,cells,> 67.5 µM (inactive)
CCOCCCn1c(=N)c(C(=O)NCc2ccc3c(c2)OCO3)cc2c(=O)n3cccc(C)c3nc21,IC50,[22],1.54 µM (active)
same,IC50,[23],5.17 µM (active)
same,AC50,[24],227 µM (active)
same,EC50,[25],> 60 µM (not active)
same,AC50,Importin subunit alpha-1,135 µM (active)
same,EC50,[26],1.27 µM (active)
COc1ccc(OC)c(S(=O)(=O)N(C(C)=O)c2ccc3oc(=O)sc3c2)c1,IC50,[27],> 100 µM (inactive)
same,IC50,[28],> 100 µM (inactive)
CC(Oc1ccccc1)C(=O)Nc1nnc(-c2ccc3ccccc3c2)o1 (configuration not stated),EC50,[29],2.7 µM (active)
O=C(Nc1ccc2nc(-c3ccco3)c(-c3ccco3)nc2c1)Nc1cccc2ccccc12,IC50,[30],1.26 µM (active)
